Patent US8354414B2, “Substituted bicyclic pyrimidines” (Cephalon, Inc, priority 2006, dated 2013)
Where a name gives a salt, the structure may show the parent alone.

Experiments:
CDK5/GST-p25 = biological target: T1, CDK5/GST-p25 (Homo sapiens, UniProt Q00535); assay: Inhibition of CDK5/GST-p25 kinase activity (ELISA with time-resolved fluorescence readout); type: biochemical
T1 construct: The final construct, encoding for full-length human CDK5; made in house; host or cells: Sf21 insect cells (baculovirus co-infection)
Procedure: Two recombinant baculoviral constructs were created, one encoding for human CDK5 and the other encoding for human p25 with an amino-terminal glutathione-S-transferase (GST) tag. PCR amplification of full-length CDK5 was performed utilizing human brain cDNA as a template and Pfu Turbo polymerase (Strategene). The PCR product from this reaction was subcloned into the baculoviral expression vector pFASTBAC1 (Gibco/BRL). The final construct, encoding for full-length human CDK5 (base pairs 25-903 of GenBank Accession #NM_004935), is 292 amino acids long with a predicted MW of 33.3 kDa.
For p25, the active truncated form of p35, amino acids 108-307 were PCR-amplified from human fetal brain cDNA (Clontech QUICK-Clone cDNA) using the Advantage 2 PCR system (Clontech). The PCR product was subcloned into the baculoviral transfer vector pFBGSTP (an engineered derivative of the baculoviral transfer vector pFASTBAC1). The final baculoviral construct encodes for base pairs 419-1021 of GenBank Accession #NM_003885, with an amino-terminal GST tag. The expressed GST-p25 is 444 amino acids long with a predicted MW of 50.3 kDa.
The CDK5/GST-p25 complex was generated by coexpression. Sf21 cells were cultured in TNM-FHS media at a density of 1.5×10^6 cells/mL and infected with each recombinant virus at MOI values of 5 (for CDK5) and 10 (for GST-p25). The cells were harvested 40 h after infection. For purification, the 100,000×g supernatant solution was used. Expression was confirmed by running samples on SDS-PAGE, followed by immunoblot analysis utilizing antibodies against CDK5 (anti-CDK5 (268-283); Calbiochem #219449) and p35 (Santa Cruz #sc820). The CDK5/GST-p25 complex was purified by glutathione affinity chromatography.
Compounds were tested for their ability to inhibit the kinase activity of recombinant baculoviral CDK5/GST-p25 using an enzyme-linked immunosorbent assay (ELISA) with time-resolved fluorescence (TRF) readout. Briefly, each 384-well FluoroNunc Maxisorp plate (Cat # 460372) plate was coated with 50 μl/well of 50 μg/ml substrate solution (recombinant GST-Rb(773-928)) in Tris-buffered saline (TBS). The CDK5/GST-p25 assay mixture (total volume=50 μl/well) consisting of 20 mM HEPES (pH 7.2), 10 μM ATP, 10 mM MgCl2, 5 mM EGTA, 25 mM β-glycerophosphate, 0.05% BSA, 2.5% DMSO, and various concentrations of test compound were then added to the assay plate. Enzyme (2 ng/ml CDK5/GST-p25) was added and the reaction was allowed to proceed at 37° C. for 20 minutes. Detection of the phosphorylated product was performed by adding 50 μl/well of phospho-Rb (Ser-780) antibody (Cell Signaling # 9307) diluted 1:10,000 in antibody dilution buffer (0.1% BSA in TBST). After 1-hour incubation at 37° C., 50 μl/well of Eu-Nl labelled anti-rabbit antibody (Wallac # AD0105; 1:50,000 in antibody dilution buffer) was added. Incubation at 37° C. then proceeded for 1 hour, followed by addition of 50 μl enhancement solution (Wallac #1244-105). The plate was gently agitated and after a few minutes, the fluorescence of the resulting solution was measured using a Multilabel Reader (Victor2 Model # 1420-018 or Envision Model # 2100). Inhibition data were analyzed using ActivityBase and IC50 curves were generated using XLFit 3.0.5.

His6-GSK-3β = biological target: T2, His6-GSK-3β (Homo sapiens, UniProt P49841); assay: Inhibition of His6-GSK-3β kinase activity (ELISA-based format, time-resolved fluorescence readout); type: biochemical; details: for IC50: class symbols, read-out: GSK3β IC50
T2 construct: made in house; host or cells: Sf21 insect cells (baculovirus)
Text: Full-length GSK-3β was amplified from a sequence-verified I.M.A.G.E. EST acquired from Research Genetics (Invitrogen, Clone ID# CSODB003YJ02). The final sequence-verified cDNA contained the coding region for a NH2-terminal tag, which encoded for 6 histidines and then eight vector-encoded amino acids prior to the start of GSK3β, which contained by # 43-1342 of Genbank Accession # NM_002093, encoding amino acids #2-419. The predicted molecular weight of the tagged, 435 amino acid, full-length protein is 48.5 kDa. The major structural element of this protein is the kinase domain, which is from amino acids #56-340. Recombinant baculoviral DNA was prepared by transposition in E. coli (BAC-TO-BAC system: Invitrogen) and the virus generated and amplified in Sf21 insect cells. A suspension culture of Sf21 cells was infected at an MOI of 0.7 and cell density of 1.5×10^6 cells/mL in Excell 420 serum-free media (JRH BioScience) and harvested 65 h after infection. The 100,000×g supernatant solution was used for purification. Expression was confirmed by running samples on SDS-PAGE, followed by immunoblot analysis utilizing both a Penta-HIS antibody (Qiagen #34660) and a GSK-3α/GSK-3β antibody (Calbiochem #368662, data not shown). The His6-tagged protein was purified to in one step by Ni-NTA affinity chromatography.
Inhibitory effects of compounds on baculoviral GSK-3β kinase activity were evaluated using an ELISA-based format in a 384-well FluoroNunc Maxisorp plate (Cat # 460372) with a time-resolved fluorescence readout. Briefly, each plate was coated with 50 μl/well of 20 μg/ml substrate solution (recombinant GST-Rb) in Tris-buffered saline (TBS). The GSK-3β assay mixture (total volume=50 μl/well) consisting of 50 mM HEPES (pH 7.2), 20 μM ATP, 10 mM MgCl2, 5 mM EGTA, 25 mM β-glycerophosphate, 0.05% BSA, 2.5% DMSO, and various concentrations of test compound were then added to the assay plate. Enzyme (200 ng/ml His6-GSK-3β) was then added and the reaction was allowed to proceed at 37° C. for 30 minutes. Detection of the phosphorylated product was performed by adding 50 μl/well of phospho-Rb (Ser-780) antibody (Cell Signaling # 9307) diluted 1:10,000 in antibody dilution buffer (0.1% BSA in TBST). After 1-hour incubation at 37° C., 50 μl/well of Eu-N1 labelled anti-rabbit antibody (Wallac # AD0105; 1:50,000 in antibody dilution buffer) was added. Incubation at 37° C. then proceeded for 1 hour, followed by addition of 50 μl enhancement solution (Wallac #1244-105). The plate was gently agitated and after a few minutes, the fluorescence of the resulting solution was measured using a Multilabel Reader (Victor2 Model # 1420-018 or Envision Model 2100). Inhibition data were analyzed using ActivityBase and IC50 curves were generated using XLFit 3.0.5.

T2 sequence (P49841 2-419): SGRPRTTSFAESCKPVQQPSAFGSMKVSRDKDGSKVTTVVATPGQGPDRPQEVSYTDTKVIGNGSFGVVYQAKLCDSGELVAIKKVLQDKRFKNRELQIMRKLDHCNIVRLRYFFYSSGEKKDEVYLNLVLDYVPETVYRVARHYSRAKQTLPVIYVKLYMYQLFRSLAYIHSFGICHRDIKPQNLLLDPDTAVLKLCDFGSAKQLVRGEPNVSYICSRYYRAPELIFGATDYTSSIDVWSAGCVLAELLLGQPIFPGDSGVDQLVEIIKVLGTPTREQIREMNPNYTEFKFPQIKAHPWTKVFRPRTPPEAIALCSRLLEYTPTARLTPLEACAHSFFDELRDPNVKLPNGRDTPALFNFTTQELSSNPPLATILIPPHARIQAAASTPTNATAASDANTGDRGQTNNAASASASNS
T1 sequence (Q00535 whole entry): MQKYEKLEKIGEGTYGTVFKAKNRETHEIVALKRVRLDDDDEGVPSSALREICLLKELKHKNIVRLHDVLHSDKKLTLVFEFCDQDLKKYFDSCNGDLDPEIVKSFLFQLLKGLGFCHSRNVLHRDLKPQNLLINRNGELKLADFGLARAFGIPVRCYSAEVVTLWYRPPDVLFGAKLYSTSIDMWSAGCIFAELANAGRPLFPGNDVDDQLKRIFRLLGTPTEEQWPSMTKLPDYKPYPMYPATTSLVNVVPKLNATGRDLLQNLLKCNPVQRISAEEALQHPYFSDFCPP
T1 sequence (Q15078 108-307 partner limits assumed): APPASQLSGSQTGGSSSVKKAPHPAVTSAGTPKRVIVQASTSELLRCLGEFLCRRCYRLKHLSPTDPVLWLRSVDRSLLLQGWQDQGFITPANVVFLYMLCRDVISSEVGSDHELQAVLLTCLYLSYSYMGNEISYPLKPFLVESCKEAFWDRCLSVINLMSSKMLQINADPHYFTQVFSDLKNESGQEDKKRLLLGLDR

Structure (SMILES) | IC50 (CDK5/GST-p25; class symbols) [nM] | IC50 (His6-GSK-3β) [nM] | IC50 (CDK5/GST-p25; numeric bounds) [nM] | GSK3β % @10 μM (His6-GSK-3β; @10 μM) [% @10 μM]
N#Cc1ccc2c(c1)C(c1nc(NCCc3cccnc3)nc3nn(C4CCCC4)cc13)C(=O)N2 (stereo not drawn) [Example 114, 3-(2-cyclopentyl-6-(2-pyridin-3-yl-ethylamino)-2H-pyrazolo[3,4-d]pyrimidin-4-yl)-2-oxo-2,3-dihydro-1H-indole-5-carbonitrile] | < 300 | < 300 |  | 
CN(C)CCN1CCN(c2nc(C3C(=O)Nc4ccc(Cl)cc43)c3cn(C4CCCC4)nc3n2)CC1 (stereo not drawn) [Example 144, 5-Chloro-3-{2-cyclopentyl-6-[4-(2-dimethylamino-ethyl)-piperazin-1-yl]-2H-pyrazolo[3,4-d]pyrimidin-4-yl}-1,3-dihydro-indol-2-one] | > 10000 | < 300 |  | 
CCCn1cc2c(C3C(=O)Nc4ccc(C)cc43)nc(NCCCOC)nc2n1 (stereo not drawn) [Example 310, 3-[6-(3-Methoxy-propylamino)-2-propyl-2H-pyrazolo[3,4-d]pryrimidin-4-yl]-5-methyl-1,3-dihydro-indol-2-one] | 300 to 3000 | 300 to 3000 |  | 
N#Cc1ccc2c(c1)C(c1nc(N3CCCC3)nc3nn(C4CCCC4)cc13)C(=O)N2 (stereo not drawn) [Example 132, 3-(2-cyclopentyl-6-pyrrolidin-1-yl-2H-pyrazolo [3,4-d]pyrimidin-4-yl)-2-oxo-2,3-dihydro-1H-indole-5-carbonitrile] | > 10000 | < 300 |  | 
COCCn1cc2c(C3C(=O)Nc4ccc(Br)cc43)nc(NCCC3CCCNC3)nc2n1 (stereo not drawn) [Example 228, 5-Bromo-3-[2-(2-methoxy-ethyl)-6-(2-piperidin-3-yl-ethylamino)-2H-pyrazolo[3,4-d]pyrimidin-4-yl]-1,3-dihydro-indol-2-one] | < 300 | < 300 |  | 
N#Cc1ccc2c(c1)C(c1nc(N3CCOCC3)nc3nn(C4CCCC4)cc13)C(=O)N2 (stereo not drawn) [Example 118, 3-(2-cyclopentyl-6-morpholin-4-yl-2H-pyrazolo[3,4-d]pyrimidin-4-yl)-2-oxo-2,3-dihydro-1H-indole-5-carbonitrile] | 300 to 3000 | < 300 |  | 
CCN(CC)CCN(C)c1nc(C2C(=O)Nc3ccc(C#N)cc32)c2cn(C3CCCC3)nc2n1 (stereo not drawn) [Example 121, 3-{2-cyclopentyl-6-[(2-diethylamino-ethyl)-methyl-amino]-2H-pyrazolo [3,4-d]pyrimidin-4-yl}-2-oxo-2,3-dihydro-1H-indole-5-carbonitrile] | > 10000 | < 300 |  | 
N#Cc1ccc2c(c1)C(c1nc(NCc3ccncc3)nc3nn(C4CCCC4)cc13)C(=O)N2 (stereo not drawn) [Example 176, 3-{2-Cyclopentyl-6-[(pyridin-4-ylmethyl)-amino]-2H-pyrazolo[3,4-d]pyrimidin-4-yl}-2-oxo-2,3-dihydro-1H-indole-5-carbonitrile] | < 300 | < 300 |  | 
C=CCNc1nc(C2C(=O)Nc3ccc(Br)cc32)c2cn(C)nc2n1 (stereo not drawn) [Example 301, 3-(6-Allylamino-2-methyl-2H-pyrazolo[3,4-d]pyrimidin-4-yl)-5-bromo-1,3-dihydro-indol-2-one] | < 300 | < 300 |  | 
O=C1Nc2ccc(Cl)cc2C1c1nc(NCc2cccnc2)nc2c1CCC2 (stereo not drawn) [Example 327, 5-Chloro-3-{2-[(pyridin-3-ylmethyl)-amino]-6,7-dihydro-5H-cyclopentapyrimidin-4-yl}-1,3-dihydro-indol-2-one] |  | 300 to 3000 | > 3000 | 
CCOCCn1cc2c(C3C(=O)Nc4ccc(Cl)cc43)nc(NCCc3cccnc3)nc2n1 (stereo not drawn) [Example 212, 5-Chloro-3-[2-(2-ethoxy-ethyl)-6-(2-pyridin-3-yl-ethylamino)-2H-pyrazolo [3,4-d]pyrimidin-4-yl]-1,3-dihydro-indol-2-one] | < 300 | < 300 |  | 
CCOCCNc1nc2c(c(C3C(=O)Nc4ccc(C#N)cc43)n1)CCC2 (stereo not drawn) [Example 344, 3-[2-(2-Ethoxy-ethylamino)-6,7-dihydro-5H-cyclopentapyrimidin-4-yl]-2-oxo-2,3-dihydro-1H-indole-5-carbonitrile] | 300 to 3000 |  |  | 69
N#Cc1ccc2c(c1)C(c1nc(NCc3ccccn3)nc3c1CCC3)C(=O)N2 (stereo not drawn) [Example 349, 2-Oxo-3-{2-[(pyridin-2-ylmethyl)-amino]-6,7-dihydro-5H-cyclopentapyrimidin-4-yl}-2,3-dihydro-1H-indole-5-carbonitrile] | < 300 | 300 to 3000 |  | 
CCCn1cc2c(C3C(=O)Nc4ccc(Br)cc43)nc(NC[C@@H]3CCCN3)nc2n1 (stereo partly drawn) [Example 361, 5-Bromo-3-{2-propyl-6-[((S)-1-pyrrolidin-2-ylmethyl)-amino]-2H-pyrazolo[3,4-d]pyrimidin-4-yl}-1,3-dihydro-indol-2-one] |  | < 300 | > 3000 | 
O=C1Nc2ccc(Br)cc2C1c1nc(NCCN2CCOCC2)nc2c1CCC2 (stereo not drawn) [Example 332, 5-Bromo-3-[2-(2-morpholin-4-yl-ethylamino)-6,7-dihydro-5H-cyclopentapyrimidin-4-yl]-1,3-dihydro-indol-2-one] |  | 300 to 3000 | > 3000 | 
CNCCCNc1nc(C2C(=O)Nc3ccc(C(F)(F)F)cc32)c2cn(C3CCCC3)nc2n1 (stereo not drawn) [Example 253, 3-[2-Cyclopentyl-6-(3-methylamino-propylamino)-2H-pyrazolo [3,4-d]pyrimidin-4-yl]-5-trifluoromethyl-1,3-dihydro-indol-2-one hydrochloride salt] | 300 to 3000 | < 300 |  | 
CCCCNc1nc(C2C(=O)Nc3ccc(C#N)cc32)c2cn(C3CCCC3)nc2n1 (stereo not drawn) [Example 116, 3-(6-butylamino-2-cyclopentyl-2H-pyrazolo [3,4-d]pyrimidin-4-yl)-2-oxo-2,3-dihydro-1H-indole-5-carbonitrile] |  | < 300 |  | 
